From patent US20230320994A1, “FUNCTIONAL IONIZABLE PHOSPHOLIPIDS” (The Board of Regents of The University of Texas System, priority 2020, published 2023)

Tested on: C57BL/6 mice
Assay: In vivo tolerability: kidney and liver function markers
Conditions: 24 hours post injection, compared with PBS
Experimental: 10A1P16-MDOA (spleen specific) iPLNPs were administrated intravenously (IV) to C57BL/6 mice (0.25 mg kg−1). Lipopolysaccharide (LPS, 5 mg kg−1, IP) was used as the positive control and PBS (IV) was examined as the negative control. 24 hours post injection, kidney function (BUN and CREA) and liver function (ALT and AST) were evaluated. […] Data are presented as mean±s.d. (n=3 biologically independent mice). Statistical significance was analyzed by the two-tailed unpaired t-test: ****, P<0.0001; ***, P<0.001; **, P<0.01; *, P<0.05.

Substance: Lipopolysaccharide [LPS]
- kidney function (BUN and CREA) and liver function (ALT and AST): severe kidney and liver injury
